Laboratory results from patent publication US11331299B2, “Medicinal use of serrulatane diterpenes” (The University of Sydney, priority 2016, dated 2022).
Like-named read-outs stand apart in the source and are kept apart here.

System: 280 human cancer cell lines
Assay: OncoPanel cell proliferation assay (10-day)
Format: cell-based
Details: Homo sapiens; for GI50: read-out: Cell Count GI50; for IC50: read-out: Cell Count IC50; for EC50: read-out: Cell Count EC50
[1] = KHOS-240S, Soft Tissue - Osteosarcoma
[2] = ME-180, ME-180, Female GU - Ovary
[3] = MG-63, MG-63, Soft Tissue - Osteosarcoma
[4] = MHH-PREB-1, MHH-PREB-1, Leukemia
[5] = MIA PaCa-2, Mia PaCa-2, Pancreas
[6] = MS751, MS751, Female GU - Ovary
[7] = Malme-3M, MALME3M, Skin (Melanoma)

CC(C)=CCC[C@H](C)[C@@H]1CC[C@@H](C)c2c1cc(C)c(O)c2O [Compound 4, 7,8-dihydroxyserrulat-14-ene]
GI50 [1]: 4.96 µM
IC50 [1]: 4.96 µM
EC50 (KLE, Female GU - Uterus): 18.2 µM
GI50 (KLE, Female GU - Uterus): 16.6 µM
IC50 (KLE, Female GU - Uterus): 18.2 µM
EC50 (KPL-1, KPL-1, Breast): 4.18 µM
GI50 (KPL-1, KPL-1, Breast): 4.13 µM
IC50 (KPL-1, KPL-1, Breast): 4.18 µM
EC50 (KU812, KU812, Leukemia): 9.5 µM
GI50 (KU812, KU812, Leukemia): 9.13 µM
IC50 (KU812, KU812, Leukemia): 9.5 µM
EC50 (L-428, L-428, Lymphoma): 2.07 µM
GI50 (L-428, L-428, Lymphoma): 2.06 µM
IC50 (L-428, L-428, Lymphoma): 2.07 µM
EC50 (LNCaP, Prostate): 11.5 µM
GI50 (LNCaP, Prostate): 12.4 µM
IC50 (LNCaP, Prostate): 12.9 µM
EC50 (LS-123, LS123, Colon): 12 µM
GI50 (LS-123, LS123, Colon): 10.7 µM
IC50 (LS-123, LS123, Colon): 12 µM
EC50 (LS-411N, LS411N, Colon): 23.1 µM
GI50 (LS-411N, LS411N, Colon): 22.6 µM
IC50 (LS-411N, LS411N, Colon): 23.1 µM
EC50 (LS-1034, LS1034, Colon): 23.6 µM
GI50 (LS-1034, LS1034, Colon): 23.5 µM
IC50 (LS-1034, LS1034, Colon): 23.6 µM
EC50 (M059J, CNS - Glioma): 13 µM
GI50 (M059J, CNS - Glioma): 12.9 µM
IC50 (M059J, CNS - Glioma): 13 µM
EC50 (MC116, MC116, Lymphoma): 12.5 µM
GI50 (MC116, MC116, Lymphoma): 12.4 µM
IC50 (MC116, MC116, Lymphoma): 12.5 µM
EC50 (MC-IXC, CNS - Neuroblastoma): 6.88 µM
GI50 (MC-IXC, CNS - Neuroblastoma): 6.88 µM
IC50 (MC-IXC, CNS - Neuroblastoma): 6.88 µM
EC50 (MCF7, MCF7, Breast): 12.1 µM
GI50 (MCF7, MCF7, Breast): 11.9 µM
IC50 (MCF7, MCF7, Breast): 12.1 µM
EC50 (MDA-MB-231, MDA MB 231, Breast): 11.4 µM
GI50 (MDA-MB-231, MDA MB 231, Breast): 11.3 µM
IC50 (MDA-MB-231, MDA MB 231, Breast): 11.4 µM
EC50 (MDA-MB-436, MDA-MB-436, Breast): 10.3 µM
GI50 (MDA-MB-436, MDA-MB-436, Breast): 10.2 µM
IC50 (MDA-MB-436, MDA-MB-436, Breast): 10.3 µM
EC50 (MDA-MB-453, MDA MB 453, Breast): 3.76 µM
GI50 (MDA-MB-453, MDA MB 453, Breast): 3.68 µM
IC50 (MDA-MB-453, MDA MB 453, Breast): 3.76 µM
EC50 (MDA-MB-468, MDA MB 468, Breast): 7.41 µM
GI50 (MDA-MB-468, MDA MB 468, Breast): 7.34 µM
IC50 (MDA-MB-468, MDA MB 468, Breast): 7.43 µM
EC50 [2]: 25.3 µM
GI50 [2]: 25.2 µM
IC50 [2]: 25.3 µM
EC50 (MEG-01, MEG01, Leukemia): 8.39 µM
GI50 (MEG-01, MEG01, Leukemia): 8.37 µM
IC50 (MEG-01, MEG01, Leukemia): 8.39 µM
EC50 (MES-SA, Soft Tissue - Sarcoma): 6.49 µM
GI50 (MES-SA, Soft Tissue - Sarcoma): 6.44 µM
IC50 (MES-SA, Soft Tissue - Sarcoma): 6.49 µM
EC50 [3]: 11.2 µM
GI50 [3]: 11.1 µM
IC50 [3]: 11.2 µM
EC50 [4]: 5.71 µM
GI50 [4]: 5.71 µM
IC50 [4]: 5.71 µM
EC50 [5]: 11 µM
GI50 [5]: 11 µM
IC50 [5]: 11 µM
EC50 (MOLT-3, MOLT-3, Leukemia): 3.15 µM
GI50 (MOLT-3, MOLT-3, Leukemia): 3.13 µM
IC50 (MOLT-3, MOLT-3, Leukemia): 3.15 µM
EC50 (MOLT-16, MOLT-16, Leukemia): 4.02 µM
GI50 (MOLT-16, MOLT-16, Leukemia): 4.01 µM
IC50 (MOLT-16, MOLT-16, Leukemia): 4.02 µM
EC50 [6]: 12.1 µM
GI50 [6]: 12 µM
IC50 [6]: 12.1 µM
EC50 (MT-3, Colon): 23.9 µM
GI50 (MT-3, Colon): 23.8 µM
IC50 (MT-3, Colon): 23.9 µM
EC50 (MV4-11, MV-4-11, Leukemia): 3.81 µM
GI50 (MV4-11, MV-4-11, Leukemia): 3.8 µM
IC50 (MV4-11, MV-4-11, Leukemia): 3.81 µM
EC50 (MX1, Leukemia): 2.46 µM
GI50 (MX1, Leukemia): 2.46 µM
IC50 (MX1, Leukemia): 2.46 µM
EC50 [7]: 20.6 µM
GI50 [7]: 17.8 µM
IC50 [7]: 20.6 µM
EC50 (MeWo, Skin (Melanoma)): 9.66 µM
GI50 (MeWo, Skin (Melanoma)): 9.51 µM
IC50 (MeWo, Skin (Melanoma)): 9.66 µM
EC50 (NALM-6, NALM-6, Leukemia): 2.61 µM
GI50 (NALM-6, NALM-6, Leukemia): 2.61 µM
IC50 (NALM-6, NALM-6, Leukemia): 2.61 µM
EC50 (NAMALWA, Lymphoma): 3.91 µM
GI50 (NAMALWA, Lymphoma): 3.9 µM
IC50 (NAMALWA, Lymphoma): 3.91 µM
EC50 (NCI-H69, NCI-H69, Lung - SCLC): 15.9 µM
GI50 (NCI-H69, NCI-H69, Lung - SCLC): 15.1 µM
IC50 (NCI-H69, NCI-H69, Lung - SCLC): 15.9 µM
